In ChEMBL document CHEMBL5506050, “Discovery of Oral AMP-Activated Protein Kinase Activators for Treating Hyperlipidemia” (J Med Chem, 2024):
Activity calls are given as the source filed them. The rule behind the calls is not given here.

Tests used:
Mus musculus [1] = test: Effect on Cidea mRNA level in liver of diet-induced obese C57BL/6 mouse model harboring AMPKalpha LS-/- at 200 mg/kg, po for 4 weeks by GO analysis; format: functional, organism-based
Mus musculus [2] = test: Downregulation of Ptafr mRNA level in liver of high-fat diet-fed C57BL/6 mouse model at 200 mg/kg, po for 4 weeks by GO analysis; format: functional, organism-based
[3] = Cmax in male Rhesus monkey at 70 mg/kg, po or 7 mg/kg, iv measured for 36 hrs by LC-tandem MS analysis; format: ADME, organism-based, Macaca mulatta; settings: in vivo
[4] = target: AMP-activated protein kinase, AMPK (Homo sapiens) (UniProt P54646+O43741+P54619+Q9UGJ0+Q9Y478+Q13131+Q9UGI9); test: Activation of AMPK in human HepG2 cells assessed as decrease in intracellular lipid content at 10 uM incubated for 48 hrs by Oil Red O staining based analysis relative to control; format: cell-based; design: scale not given: the % may be the effect or the level left
Erythrocyte = test: In vivo induction of AMPK phosphorylation in erythrocytes of human at 2000 mg measured after 5 to 12 hrs by ELISA; format: functional, organism-based; settings: time 5-12 hrs
Mus musculus [5] = test: Downregulation of Cidea mRNA level in liver of high-fat diet-fed C57BL/6 mouse model at 200 mg/kg, po for 4 weeks by GO analysis; format: functional, organism-based
[6] = Stability in human Caco-2 cells assessed as compound remaining at 10 ug/ml measured after 2 hrs by LC-MS/MS analysis; format: ADME, cell-based; settings: at 10 µg/mL, read-out: Stability
[7] = Half life in female Rhesus monkey at 70 mg/kg, po or 7 mg/kg, iv measured for 36 hrs by LC-tandem MS analysis; format: ADME, organism-based, Macaca mulatta; settings: in vivo
Syrian golden hamster [8] = test: Lipid lowering effect on high-fat diet-fed golden hamster assessed as decrease in serum TC level administered orally once daily via gavage measured after 4 weeks; format: functional, organism-based; settings: Mesocricetus auratus, dose 50-200 mg/kg, route po
Rhesus monkey = test: Lipid lowering effect in Rhesus monkey assessed as decrease in serum LDL-C level at 35 mg/kg, NG qd treated for 35 days followed by drug washout for 14 days relative to control; format: functional, Macaca mulatta; design: scale not given: the % may be the effect or the level left; settings: time 35 day
[9] = Stability in human liver microsomes assessed as drug metabolism at 1 uM measured after 5 mins in presence of NADPH by LC-MS/MS analysis; format: ADME, Microsome; settings: read-out: Drug metabolism
Mus musculus [10] = test: Downregulation of Sdf2l1 mRNA level in liver of high-fat diet-fed C57BL/6 mouse model at 200 mg/kg, po for 4 weeks by GO analysis; format: functional, organism-based
[11] = Stability in human liver microsomes assessed as […] at 1 uM measured for 60 mins in presence of NADPH by LC-MS/MS analysis; format: ADME, Microsome; settings: read-out: QH
[12] = AUC (0 to t) in female Rhesus monkey at 70 mg/kg, po or 7 mg/kg, iv measured for 36 hrs by LC-tandem MS analysis; format: ADME, organism-based, Macaca mulatta; settings: in vivo
Mus musculus [13] = test: Effect on Gadd45b mRNA level in liver of diet-induced obese C57BL/6 mouse model harboring AMPKalpha LS-/- at 200 mg/kg, po for 4 weeks by GO analysis; format: functional, organism-based
Mus musculus [14] = test: Downregulation of Ccr2 mRNA level in liver of high-fat diet-fed C57BL/6 mouse model at 200 mg/kg, po for 4 weeks by GO analysis; format: functional, organism-based
Syrian golden hamster [15] = test: Lipid lowering effect on high-fat diet-fed golden hamster assessed as decrease in serum LDL-C level at 100 mg/kg, po qd administered via gavage measured after 4 weeks relative to control; format: functional, Mesocricetus auratus; design: scale not given: the % may be the effect or the level left
Mus musculus [16] = test: Downregulation of Ccl2 mRNA level in liver of high-fat diet-fed C57BL/6 mouse model at 200 mg/kg, po for 4 weeks by GO analysis; format: functional, organism-based
[17] = Half life in male Rhesus monkey at 70 mg/kg, po or 7 mg/kg, iv measured for 36 hrs by LC-tandem MS analysis; format: ADME, organism-based, Macaca mulatta; settings: in vivo
Mus musculus [18] = test: Downregulation of Dnajb9 mRNA level in liver of high-fat diet-fed C57BL/6 mouse model at 200 mg/kg, po for 4 weeks by GO analysis; format: functional, organism-based
Mus musculus [19] = test: Effect on Sdf2l1 mRNA level in liver of diet-induced obese C57BL/6 mouse model harboring AMPKalpha LS-/- at 200 mg/kg, po for 4 weeks by GO analysis; format: functional, organism-based
Mus musculus [20] = test: Effect on Aacas mRNA level in liver of diet-induced obese C57BL/6 mouse model harboring AMPKalpha LS-/- at 200 mg/kg, po for 4 weeks by GO analysis; format: functional, organism-based
Syrian golden hamster [21] = test: Lipid lowering effect on high-fat diet-fed golden hamster assessed as decrease in TC level in liver at 100 to 200 mg/kg, po qd administered via gavage measured after 4 weeks; format: functional, organism-based; settings: Mesocricetus auratus, dose 100-200 mg/kg
[22] = Oral bioavailability in female Rhesus monkey at 70 mg/kg measured for 36 hrs by LC-tandem MS analysis; format: ADME, organism-based, Macaca mulatta; settings: in vivo
[23] = target: AMP-activated protein kinase (AMPK) alpha-1/beta-1/gamma-1 (Homo sapiens) (UniProt P54619+Q9Y478+Q13131); test: Activation of AMPK alpha1/AMPKbeta1/AMPKgamma1 (unknown origin) using SAMS peptide as substrate at; format: protein-complex assay; settings: filed as activator, dose < 70.3 µM, time 20.0 min
Mus musculus [24] = test: Effect on Pcsk9 mRNA level in liver of diet-induced obese C57BL/6 mouse model harboring AMPKalpha LS-/- at 200 mg/kg, po for 4 weeks by GO analysis; format: functional, organism-based
Mus musculus [25] = test: Effect on Lepr mRNA level in liver of diet-induced obese C57BL/6 mouse model harboring AMPKalpha LS-/- at 200 mg/kg, po for 4 weeks by GO analysis; format: functional, organism-based
Mus musculus [26] = test: Upregulation of Gadd45b mRNA level in liver of high-fat diet-fed C57BL/6 mouse model at 200 mg/kg, po for 4 weeks by GO analysis; format: functional, organism-based
Mus musculus [27] = test: Lipid lowering effect on high-fat diet-fed C57BL/6J mouse assessed as decrease in serum LDL-C level at 20 mg/kg/day, po administered via gavage measured after 7 days relative to control; format: functional; design: scale not given: the % may be the effect or the level left; settings: time 7 day
Mus musculus [28] = test: Downregulation of Dhcr7 mRNA level in liver of high-fat diet-fed C57BL/6 mouse model at 200 mg/kg, po for 4 weeks by GO analysis; format: functional, organism-based
[29] = Apparent permeability across apical to basal side in human Caco-2 cells at 2 uM incubated for 2 hrs by LC-MS/MS analysis; format: ADME, cell-based
Mus musculus [30] = test: Downregulation of Hspa5 mRNA level in liver of high-fat diet-fed C57BL/6 mouse model at 200 mg/kg, po for 4 weeks by GO analysis; format: functional, organism-based
[31] = Efflux ratio of apparent permeability across basal to apical side over apical to basal side in human Caco-2 cells at 2 uM incubated for 2 hrs by LC-MS/MS analysis; format: ADME, cell-based
[32] = AUC (0 to t) in male Rhesus monkey at 70 mg/kg, po or 7 mg/kg, iv measured for 36 hrs by LC-tandem MS analysis; format: ADME, organism-based, Macaca mulatta; settings: in vivo
Syrian golden hamster [33] = test: Effect on liver weight in high-fat diet-fed golden hamster at 50 to 200 mg/kg, po qd administered via gavage measured after 4 weeks; format: functional, organism-based; settings: Mesocricetus auratus, dose 50-200 mg/kg

Chain of AMP-activated protein kinase (AMPK) alpha-1/beta-1/gamma-1 (Homo sapiens) (P54619 whole entry): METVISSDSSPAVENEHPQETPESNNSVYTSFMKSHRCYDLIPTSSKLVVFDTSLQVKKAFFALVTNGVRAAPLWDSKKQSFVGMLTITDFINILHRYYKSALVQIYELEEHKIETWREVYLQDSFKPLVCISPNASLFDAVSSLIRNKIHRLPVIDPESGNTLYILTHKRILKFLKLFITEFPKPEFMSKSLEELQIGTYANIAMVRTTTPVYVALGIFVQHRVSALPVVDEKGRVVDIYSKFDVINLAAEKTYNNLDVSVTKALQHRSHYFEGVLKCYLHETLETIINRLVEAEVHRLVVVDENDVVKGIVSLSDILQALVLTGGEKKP
Chain of AMP-activated protein kinase (AMPK) alpha-1/beta-1/gamma-1 (Homo sapiens) (Q13131 whole entry partner): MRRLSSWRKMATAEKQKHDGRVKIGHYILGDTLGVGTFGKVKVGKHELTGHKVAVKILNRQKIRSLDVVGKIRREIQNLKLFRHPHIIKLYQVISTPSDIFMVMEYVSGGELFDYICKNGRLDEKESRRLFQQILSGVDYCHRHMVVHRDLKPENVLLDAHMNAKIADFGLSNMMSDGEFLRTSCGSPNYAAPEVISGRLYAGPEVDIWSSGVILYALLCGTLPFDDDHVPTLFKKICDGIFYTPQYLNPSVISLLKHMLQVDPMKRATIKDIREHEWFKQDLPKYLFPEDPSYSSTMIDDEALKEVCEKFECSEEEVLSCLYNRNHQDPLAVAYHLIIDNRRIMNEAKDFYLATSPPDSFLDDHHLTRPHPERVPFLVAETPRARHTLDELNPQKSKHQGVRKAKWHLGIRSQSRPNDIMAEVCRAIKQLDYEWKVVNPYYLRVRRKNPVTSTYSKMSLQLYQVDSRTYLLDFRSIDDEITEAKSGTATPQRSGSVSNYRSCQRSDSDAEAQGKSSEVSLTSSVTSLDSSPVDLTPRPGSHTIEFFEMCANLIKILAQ
Chain of AMP-activated protein kinase (AMPK) alpha-1/beta-1/gamma-1 (Homo sapiens) (Q9Y478 2-270 partner limits assumed): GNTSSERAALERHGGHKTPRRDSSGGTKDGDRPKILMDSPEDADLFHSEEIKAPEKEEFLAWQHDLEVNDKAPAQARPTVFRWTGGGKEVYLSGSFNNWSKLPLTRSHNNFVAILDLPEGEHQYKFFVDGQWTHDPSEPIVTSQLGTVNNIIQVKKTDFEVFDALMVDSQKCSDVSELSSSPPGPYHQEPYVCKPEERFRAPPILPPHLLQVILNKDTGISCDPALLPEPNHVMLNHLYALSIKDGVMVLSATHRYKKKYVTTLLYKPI

CC(=O)OC[C@H]1O[C@@H](n2cnc3c(Nc4cccc(O)c4)ncnc32)[C@H](OC(C)=O)[C@@H]1OC(C)=O
Activity (Mus musculus [1]): inactive
Activity (Mus musculus [2]): Active
Cmax [3]: 20.4 ng/mL
Activity [4]: 64%
Activity (Erythrocyte): Active
Activity (Mus musculus [5]): Active
remaining at 2 h, 10 ug/ml [6]: 63%
half-life [7]: 4.15 h
Activity (Syrian golden hamster [8]): Dose-Dependent Effect
Activity (Rhesus monkey): 4.83%
metabolised at 5 min, 1 µM [9]: > 80%
Activity (Mus musculus [10]): Active
hepatic extraction ratio at 1 h, 1 µM [11]: > 0.7
AUC(0-t) at 36 h [12]: 102 ng·h/mL
Activity (Mus musculus [13]): inactive
Activity (Mus musculus [14]): Active
Activity (Syrian golden hamster [15]): 36.2%
Activity (Mus musculus [16]): Active
half-life [17]: 5.4 h
Activity (Mus musculus [18]): Active
Activity (Mus musculus [19]): inactive
Activity (Mus musculus [20]): inactive
Activity (Syrian golden hamster [21]): Active
bioavailability [22]: 3.75%
Activity [23]: Active
Activity (Mus musculus [24]): inactive
Activity (Mus musculus [25]): inactive
Activity (Mus musculus [26]): Active
Activity (Mus musculus [27]): 22.2%
Activity (Mus musculus [28]): Active
Papp A→B at 2 h, 2 µM [29]: 8.6 ×10⁻⁶ cm/s
Activity (Mus musculus [30]): Active
efflux ratio at 2 h, 2 µM [31]: 2.1
AUC(0-t) at 36 h [32]: 109 ng·h/mL
Activity (Syrian golden hamster [33]): inactive
